# Literature values in patent US20040033532A1, “Use of three-dimensional crystal structure coordinates to design and synthesize domain-selective inhibitors for angiotensin-converting enzyme (ACE)” (priority 2002, published 2004).
# Entries after “also recorded” stand apart in the source; their conditions may differ. Like-named read-outs stand apart in the source and are kept apart here.
# Assays:
# rabbit liver ACE = target: T1, rabbit liver ACE (Oryctolagus cuniculus, UniProt P12822)
# T1 construct: rabbit liver ACE in vitro; from tissue; host or cells: rabbit liver
# T1 sequence (P12822 34-1310): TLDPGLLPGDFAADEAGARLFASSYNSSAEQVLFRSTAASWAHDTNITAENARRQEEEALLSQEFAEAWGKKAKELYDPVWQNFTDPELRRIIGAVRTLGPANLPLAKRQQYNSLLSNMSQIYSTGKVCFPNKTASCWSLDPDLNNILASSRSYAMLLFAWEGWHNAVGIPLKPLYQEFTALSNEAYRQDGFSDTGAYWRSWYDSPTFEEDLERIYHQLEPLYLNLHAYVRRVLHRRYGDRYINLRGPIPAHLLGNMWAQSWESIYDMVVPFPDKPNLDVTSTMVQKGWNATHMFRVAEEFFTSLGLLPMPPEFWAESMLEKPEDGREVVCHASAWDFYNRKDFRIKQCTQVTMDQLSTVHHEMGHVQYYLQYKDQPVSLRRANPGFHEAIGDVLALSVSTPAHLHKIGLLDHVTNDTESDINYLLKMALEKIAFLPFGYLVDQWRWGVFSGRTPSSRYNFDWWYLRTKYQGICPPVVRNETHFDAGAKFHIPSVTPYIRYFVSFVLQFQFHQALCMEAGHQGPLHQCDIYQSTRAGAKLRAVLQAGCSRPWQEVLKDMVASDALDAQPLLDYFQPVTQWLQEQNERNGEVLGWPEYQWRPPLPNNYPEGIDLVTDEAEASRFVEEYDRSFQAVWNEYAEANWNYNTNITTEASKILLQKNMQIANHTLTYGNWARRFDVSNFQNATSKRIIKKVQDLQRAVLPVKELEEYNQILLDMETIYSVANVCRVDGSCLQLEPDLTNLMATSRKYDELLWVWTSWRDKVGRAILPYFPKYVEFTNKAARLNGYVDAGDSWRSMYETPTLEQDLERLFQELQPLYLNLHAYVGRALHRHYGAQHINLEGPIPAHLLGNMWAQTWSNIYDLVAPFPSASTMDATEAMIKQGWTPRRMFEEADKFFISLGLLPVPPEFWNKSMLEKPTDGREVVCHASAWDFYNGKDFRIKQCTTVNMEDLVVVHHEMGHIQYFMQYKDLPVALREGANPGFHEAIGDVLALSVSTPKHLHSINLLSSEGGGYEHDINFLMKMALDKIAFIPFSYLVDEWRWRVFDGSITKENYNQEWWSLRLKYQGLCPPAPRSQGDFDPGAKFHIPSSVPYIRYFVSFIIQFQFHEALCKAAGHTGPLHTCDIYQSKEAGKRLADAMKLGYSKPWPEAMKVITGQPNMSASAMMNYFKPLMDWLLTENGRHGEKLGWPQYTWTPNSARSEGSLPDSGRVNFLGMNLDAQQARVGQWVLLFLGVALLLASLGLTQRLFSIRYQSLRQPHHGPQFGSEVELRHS
# [1] = tested on: ACE N domain and C domain active sites; conditions: N domain vs C domain
# ACE = ACE (Homo sapiens, UniProt P12821)
# Chain of ACE (P12821 30-1306, species assumed): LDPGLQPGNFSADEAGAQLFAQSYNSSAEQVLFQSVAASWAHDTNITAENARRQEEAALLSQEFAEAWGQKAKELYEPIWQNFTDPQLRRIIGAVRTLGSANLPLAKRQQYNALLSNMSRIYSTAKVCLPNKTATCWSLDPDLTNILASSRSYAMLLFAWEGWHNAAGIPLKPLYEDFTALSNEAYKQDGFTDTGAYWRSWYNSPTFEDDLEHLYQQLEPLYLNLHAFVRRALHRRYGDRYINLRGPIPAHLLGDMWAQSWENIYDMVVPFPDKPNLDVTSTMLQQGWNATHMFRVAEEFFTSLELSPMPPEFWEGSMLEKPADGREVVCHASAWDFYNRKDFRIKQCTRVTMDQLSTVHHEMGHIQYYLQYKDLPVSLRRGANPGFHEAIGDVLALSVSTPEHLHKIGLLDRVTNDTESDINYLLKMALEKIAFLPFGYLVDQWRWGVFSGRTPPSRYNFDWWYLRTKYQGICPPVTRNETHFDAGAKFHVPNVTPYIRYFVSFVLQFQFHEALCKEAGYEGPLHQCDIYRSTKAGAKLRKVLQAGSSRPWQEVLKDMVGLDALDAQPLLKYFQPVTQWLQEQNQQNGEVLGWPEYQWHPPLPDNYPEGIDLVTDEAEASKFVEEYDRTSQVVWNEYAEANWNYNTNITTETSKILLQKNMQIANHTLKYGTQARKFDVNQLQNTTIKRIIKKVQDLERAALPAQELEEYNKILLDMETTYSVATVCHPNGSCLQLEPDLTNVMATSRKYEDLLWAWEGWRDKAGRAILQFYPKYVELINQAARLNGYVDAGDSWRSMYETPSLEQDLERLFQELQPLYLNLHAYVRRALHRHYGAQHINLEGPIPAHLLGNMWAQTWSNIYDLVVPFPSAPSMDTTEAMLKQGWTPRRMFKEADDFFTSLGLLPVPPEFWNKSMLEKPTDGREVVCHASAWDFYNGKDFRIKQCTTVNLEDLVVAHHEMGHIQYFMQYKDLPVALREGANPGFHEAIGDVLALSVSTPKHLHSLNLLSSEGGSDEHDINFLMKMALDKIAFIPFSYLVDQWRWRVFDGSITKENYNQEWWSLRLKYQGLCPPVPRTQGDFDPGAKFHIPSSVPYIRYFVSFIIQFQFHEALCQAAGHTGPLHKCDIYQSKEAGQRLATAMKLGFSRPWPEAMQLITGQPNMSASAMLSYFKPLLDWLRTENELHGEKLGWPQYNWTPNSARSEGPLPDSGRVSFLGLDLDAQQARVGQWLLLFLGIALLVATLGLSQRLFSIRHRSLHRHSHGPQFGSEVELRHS
compound,measurement,setting,value
C[C@H](NC(=O)/C=C/c1ccccc1)C(=O)N1CCC[C@H]1C(=O)O [Compound 1],IC50,"rabbit liver ACE; Hip-His-Leu hydrolysis, rabbit liver ACE, in vitro",230000 nM
same,enzyme activity remaining,rabbit liver ACE; after 10 minutes of incubation with 0.4 mM of inhibitor,~50%
same,recovery of enzyme activity after dialysis,rabbit liver ACE; after dialysis,could not be recovered
Ac-Asp-Phe-Ψ(PO2—CH2)-Ala-Ala-NH2,domain selectivity of ACE inhibition (in words),[1],far better inhibitor of the N domain
same,domain selectivity of ACE inhibition (in words),[1]; listed as Ac-Asp-Phe-Ψ(PO2—CH2)-Ala-Ala,far better inhibitor of the N-domain
"Angiotensin (1-7) [Asp^1-Pro^7] (DRVYIHP; Angiotensin 1-7; UniProt P01019 25-31, looked up, fragment) [peptide Asp1-Pro7 of angiotensin]",domain selectivity of ACE inhibition (in words),[1],more effective inhibitors of the C domain
CN(CC(=O)NO)C(=O)[C@@H]1CCCC[C@@H]1C(=O)O [Compound 2],IC50,ACE; Hip-Gly-Gly as substrate,7 nM
same,Ki,ACE; competitive inhibitor of ACE,2.7 ± 0.2 nM
"O=C(N[C@@H](Cc1ccccc1)C(=O)CCC(=O)N1CCC[C@H]1C(=O)O)c1ccccc1 [keto-ACE, Bz-Phe Ψ (CO—CH2)Gly-Pro]",domain selectivity of ACE inhibition (in words),[1],more effective inhibitors of the C domain; also recorded: C-domain specific inhibitor
